This assay concerns the target T1, Leucine aminopeptidase (Plasmodium falciparum 3D7, UniProt Q8IL11).
T1 sequence (Q8IL11 whole entry): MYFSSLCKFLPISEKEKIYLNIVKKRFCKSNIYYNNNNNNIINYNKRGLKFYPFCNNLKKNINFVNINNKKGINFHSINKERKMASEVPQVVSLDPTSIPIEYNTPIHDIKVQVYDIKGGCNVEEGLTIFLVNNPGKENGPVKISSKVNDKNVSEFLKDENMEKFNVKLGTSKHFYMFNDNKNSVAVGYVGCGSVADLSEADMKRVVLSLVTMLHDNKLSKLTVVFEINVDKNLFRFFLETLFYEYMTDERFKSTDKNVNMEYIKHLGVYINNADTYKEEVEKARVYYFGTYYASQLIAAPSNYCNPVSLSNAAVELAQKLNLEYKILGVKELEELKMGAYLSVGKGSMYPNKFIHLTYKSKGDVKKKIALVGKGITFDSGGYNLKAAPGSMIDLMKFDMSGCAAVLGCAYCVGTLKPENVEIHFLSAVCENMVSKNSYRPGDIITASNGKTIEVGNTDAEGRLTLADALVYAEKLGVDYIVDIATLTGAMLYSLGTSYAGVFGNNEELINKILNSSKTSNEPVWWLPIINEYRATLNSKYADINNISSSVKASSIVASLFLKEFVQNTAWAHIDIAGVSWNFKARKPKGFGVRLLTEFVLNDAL
Put plainly: Inhibition of Plasmodium falciparum recombinant leucine aminopeptidase.

As usually defined, the Ki is the dissociation constant of the complex between target and ligand, obtained from inhibition or displacement. As for `NC(CCc1ccccc1)P(=O)(O)CC(Cc1ccccc1)C(=O)O` (stereo unspecified), the Ki came to 13.2 nM.

(Values after ChEMBL document CHEMBL1141521, “Individual stereoisomers of phosphinic dipeptide inhibitor of leucine aminopeptidase” (Bioorg Med Chem Lett, 2008).)
